Literature values as cited in patent US11938224B1, “Benzonatate modified release solid tablets and capsules” (Tris Pharma, Inc., priority 2016, dated 2024).

Details: room temperature, oily liquid

solubility in water: water soluble
SMILES: CCCCNc1ccc(C(=O)OCCOCCOCCOCCOCCOCCOCCOCCOCCOC)cc1 [Benzonatate, 2-[2-[2-[2-[2-[2-[2-[2-(2-methoxyethoxy)ethoxy]ethoxy]ethoxy]ethoxy]ethoxy]ethoxy]ethoxy] ethyl-4-butylaminobenzoate]
